Data on 14 compounds can be found in the NIST ThermoML archive (doi:10.1016/j.jct.2010.01.004).

The conditions of series [1]: 308.15 K; 101.33 kPa; Liquid; Vibrating tube method.
Series [2] can be described thus: activity coefficient (dimensionless); of the first substance listed, at infinite dilution; xn = mol fraction of the nth substance listed. The conditions noted are these: Liquid, Chromatography, x1 = 0.

± gives the expanded uncertainty stated by the source.

One may read the mass density as mass per unit of volume. Consider `CC(C)C[P+](C)(CC(C)C)CC(C)C.Cc1ccc(S(=O)(=O)[O-])cc1` [triisobutylmethylphosphonium p-toluenesulfonate], for which, in series [1], the mass density was found to be 1061 ± 3 kg/m3.
For the compound `C1CCCCCC1` [cycloheptane] + CC(C)C[P+](C)(CC(C)C)CC(C)C.Cc1ccc(S(=O)(=O)[O-])cc1, the activity coefficient was 12.3 ± 0.8 in series [2] (298.15 K), 9.79 ± 0.67 in series [2] (308.15 K), 7.64 ± 0.52 in series [2] (318.15 K) and 6.55 ± 0.45 in series [2] (328.15 K).
Take `CCc1ccccc1` [ethylbenzene] + CC(C)C[P+](C)(CC(C)C)CC(C)C.Cc1ccc(S(=O)(=O)[O-])cc1: the activity coefficient is 2.51 ± 0.17 in series [2] (298.15 K); 2.37 ± 0.16 in series [2] (308.15 K); 2.33 ± 0.16 in series [2] (318.15 K); 2.25 ± 0.15 in series [2] (328.15 K); 2.2 ± 0.15 in series [2] (338.15 K); 2.17 ± 0.15 in series [2] (348.15 K). Besides, the activity coefficient in series [2] (358.15 K) is 2.16 ± 0.15; in series [2] (368.15 K), 2.09 ± 0.14.
With `CCCCCCC` [heptane] + CC(C)C[P+](C)(CC(C)C)CC(C)C.Cc1ccc(S(=O)(=O)[O-])cc1, the activity coefficient in series [2] (298.15 K) came to 35.2 ± 2.4; in series [2] (308.15 K), 26.4 ± 1.8; in series [2] (318.15 K), 20.8 ± 1.4; in series [2] (328.15 K), 16.1 ± 1.1.
Taken in the same sequence, the figures for `CCCCCCCC` [octane] + CC(C)C[P+](C)(CC(C)C)CC(C)C.Cc1ccc(S(=O)(=O)[O-])cc1 were 30.7 ± 2.1, 25.8 ± 1.8, 20.6 ± 1.4 and 17.2 ± 1.2.
In the case of `C=CCCC` [1-pentene] + CC(C)C[P+](C)(CC(C)C)CC(C)C.Cc1ccc(S(=O)(=O)[O-])cc1, the activity coefficient in series [2] (298.15 K) amounted to 30.5 ± 2.1; in series [2] (308.15 K) it was 20.7 ± 1.4; in series [2] (318.15 K), 14.5 ± 1; in series [2] (328.15 K), 9.91 ± 0.68.
As for `CCCCCO` [pentan-1-ol] + CC(C)C[P+](C)(CC(C)C)CC(C)C.Cc1ccc(S(=O)(=O)[O-])cc1, the activity coefficient amounted to 0.34 ± 0.032 in series [2] (338.15 K), 0.346 ± 0.032 in series [2] (348.15 K), 0.354 ± 0.032 in series [2] (358.15 K) and 0.357 ± 0.033 in series [2] (368.15 K).
For `C1CCCC1` [cyclopentane] + CC(C)C[P+](C)(CC(C)C)CC(C)C.Cc1ccc(S(=O)(=O)[O-])cc1, the activity coefficient in series [2] (298.15 K) was 20.6 ± 1.4; in series [2] (308.15 K), 13.5 ± 0.9; in series [2] (318.15 K), 9.69 ± 0.66; in series [2] (328.15 K) it was 6.79 ± 0.46.
For `CCCO` [propan-1-ol] + CC(C)C[P+](C)(CC(C)C)CC(C)C.Cc1ccc(S(=O)(=O)[O-])cc1, the activity coefficient in series [2] (308.15 K) worked out at 0.278 ± 0.03; in series [2] (318.15 K) it was 0.282 ± 0.03; in series [2] (328.15 K), 0.28 ± 0.03; in series [2] (338.15 K) it was 0.284 ± 0.03; in series [2] (348.15 K) it was 0.287 ± 0.031; in series [2] (358.15 K), 0.299 ± 0.031. In addition, in series [2] (368.15 K), the activity coefficient amounted to 0.287 ± 0.031.
With `Cc1ccc(C)cc1` [1,4-dimethylbenzene] + CC(C)C[P+](C)(CC(C)C)CC(C)C.Cc1ccc(S(=O)(=O)[O-])cc1, the activity coefficient in series [2] (298.15 K) came to 2.54 ± 0.17; in series [2] (308.15 K) it was 2.44 ± 0.17; in series [2] (318.15 K) it was 2.4 ± 0.16; in series [2] (328.15 K) it was 2.23 ± 0.15; in series [2] (338.15 K) it was 2.26 ± 0.15; in series [2] (348.15 K), 2.23 ± 0.15. Moreover, the results for the activity coefficient in series [2] (358.15 K) and in series [2] (368.15 K) were 2.24 ± 0.15 and 2.21 ± 0.15, respectively.
With `O` [water] + CC(C)C[P+](C)(CC(C)C)CC(C)C.Cc1ccc(S(=O)(=O)[O-])cc1, the activity coefficient in series [2] (318.15 K) stood at 0.585 ± 0.041; in series [2] (328.15 K) it was 0.552 ± 0.04; in series [2] (338.15 K), 0.534 ± 0.039; in series [2] (348.15 K), 0.524 ± 0.039; in series [2] (358.15 K), 0.492 ± 0.037; in series [2] (368.15 K) it was 0.477 ± 0.037.
Consider `CCCCCCCCCC` [decane] + CC(C)C[P+](C)(CC(C)C)CC(C)C.Cc1ccc(S(=O)(=O)[O-])cc1, for which the activity coefficient was 33.3 ± 2.3 in series [2] (298.15 K), 29.2 ± 2 in series [2] (308.15 K), 26 ± 1.8 in series [2] (318.15 K) and 23.6 ± 1.6 in series [2] (328.15 K).
Regarding `CCCCC` [pentane] + CC(C)C[P+](C)(CC(C)C)CC(C)C.Cc1ccc(S(=O)(=O)[O-])cc1, the activity coefficient in series [2] (298.15 K) amounted to 61.4 ± 4.2; in series [2] (308.15 K), 41.5 ± 2.8; in series [2] (318.15 K), 28.5 ± 2; in series [2] (328.15 K), 18.5 ± 1.3.
As for `C=CCCCCC` [1-heptene] + CC(C)C[P+](C)(CC(C)C)CC(C)C.Cc1ccc(S(=O)(=O)[O-])cc1, the activity coefficient stood at 19.2 ± 1.3 in series [2] (298.15 K), 14.6 ± 1 in series [2] (308.15 K), 11.9 ± 0.8 in series [2] (318.15 K) and 9.62 ± 0.66 in series [2] (328.15 K).
